Entries after “also recorded” stand apart in the source; their conditions may differ.
What was measured:
Set-up in all cases: species or system Wistar Han rat
[1] = tested on: dopamine (DA) in the nucleus accumbens (nAc); assay: In vivo microdialysis of dopamine in nucleus accumbens (Example 1); conditions: for DA effect nAc vs DMS (brain region comparison over time): dual probe, Org 24598 9 mg/kg, varenicline 1.5 mg/kg
Procedure: (§1) 95 adult male Wistar Han rats (Envigo, Horst, Netherlands) were used in all experiments, weighing 280 to 350 g at the time of surgery (corresponding to approximately 9-10 weeks of age). The animals were housed in groups of five per cage (55×35×20 cm) at constant room temperature (22° C.), relative humidity (65%), and regular dark-light conditions (lights on at 7 AM and off at 7 PM). […] The animals were allowed to acclimate to the animal facilities for at least one week before surgery. This study was approved by the Ethics Committee for Animal Experiments, Gothenburg, Sweden and conducted according to national laws and guidelines for the care and use of laboratory animals.
(§2) Nicotine ((−)-nicotine hydrogen tartrate salt, Sigma, Stockholm, Sweden), 95% ethanol (Kemetyl AB, Stockholm, Sweden), varenicline (6,7,8,9-tetrahydro-6,10-methano-6H-pyrazino[2,3-h][3]benzazepine tartrate; provided by Pfizer Global Research and Development) and N-methyl-N-[(3R)-3-phenyl-3-[4-(trifluoromethyl) phenoxy]propyl]-glycine (Org 24598) (Tocris, Bristol, United Kingdom) were dissolved in physiological saline solution (0.9% NaCl) and administered subcutaneous (nicotine and varenicline) or intraperitoneal (ethanol and Org 24598) at a volume of 2 ml/kg (nicotine and varenicline), 5 ml/kg for EtOH and 4 ml/kg for Org 24598. The pH of the nicotine solution was neutralized with bicarbonate to approximately 7.2-7.4.
(§3) The microdialysis experiments were performed as previously described (Clarke, et al., 2014, Increase in nucleus accumbens dopamine levels following local ethanol administration is not mediated by acetaldehyde, Alcohol Alcohol 49, 498-504; Danielsson et al., 2021, Differential dopamine release by psychosis-generating and non-psychosis-generating addictive substances in the nucleus accumbens and dorsomedial striatum, Transl Psychiatry 11, 472). Animals were anaesthetized with isoflurane before being mounted into a stereotaxic instrument (David Kopf Instruments, AgnTho's, Stockholm, Sweden). The animals were equipped with either a standard in-house made single probe placed in the nAc (A/P +1.85, M/L −1.2, D/V −7.8) or the DMS (A/P+1.2, M/L −1.4, D/V −5.5) (Paxinos, 2007, The rat brain in stereotaxic coordinates. Amsterdam u.a.: Elsevier, Academic Press, Amsterdam), or a custom-made dual microdialysis probe (FIG. 1), which permits simultaneous sampling from both the nAc and DMS. Two additional holes were drilled in the skull in order to allow anchoring screws to be fastened, and the probe and screws were set in place using Harvard cement (DAB Dental AB, Stockholm, Sweden). The animals were then placed in single housing cages and allowed to recover for 48 h prior to the microdialysis experiment.
On the day of the experiment, the animals were connected to a microperfusion pump (U-864 Syringe Pump, AgnTho's, Sweden) via a swivel, which allowed the animals to move around the cage freely. During the entire experiment, the probes were perfused with Ringer solution at a rate of 2 μl/min, and dialysate samples were collected every 20 min. Baseline sampling commenced after a 2-hour period, during which a balanced fluid exchange was established. Once at least three consecutive stable DA values were obtained (±10%), pharmacological treatment was administered, followed by a total of 180 minutes of sampling.
(§4) Microdialysis samples were analyzed as previously described for DA (Clarke, et al., 2014, Increase in nucleus accumbens dopamine levels following local ethanol administration is not mediated by acetaldehyde, Alcohol Alcohol 49, 498-504). In brief, DA content was analyzed using high performance liquid chromatography (HPLC) with electrochemical detection, using an external standard containing 3.25 fmol/μl of DA to identify DA peaks and quantify DA content. The chromatograms were analyzed using the software Thermo Scientific Chromelion Chromatography System (CDS) Chromelion 7.

[2] = tested on: dopamine (DA) in the dorsomedial striatum (DMS); assay: In vivo microdialysis of dopamine in dorsomedial striatum (Example 1)
Procedure: as §1, §2, §3
On the day of the experiment, the animals were connected to a microperfusion pump (U-864 Syringe Pump, AgnTho's, Sweden) via a swivel, which allowed the animals to move around the cage freely. […]
as §4

[3] = tested on: dopamine (DA) in the nucleus accumbens (nAc); assay: In vivo microdialysis of dopamine in nucleus accumbens (Example 2)
Procedure: (§5) Adult male Wistar Han rats (Envigo, Horst, Netherlands) were used, weighing approximately 320 g at the time of surgery (corresponding to approximately 9-10 weeks of age). The animals were housed in groups of five per cage (55×35×20 cm) at constant room temperature (22° C.), relative humidity (65%), and regular dark-light conditions (lights on at 7 AM and off at 7 PM). All animals had ad libitum access to standard rat feed (Harlan Teklad, Envigo, Europe) and tap water. The animals were allowed to acclimate to the animal facilities for at least one week before surgery. This study was approved by the Ethics Committee for Animal Experiments, Gothenburg, Sweden and conducted according to national laws and guidelines for the care and use of laboratory animals.
(§6) The microdialysis experiments were performed as previously described (Clarke et al., 2014; Danielsson et al., 2021). […]
(§7) Microdialysis samples were analyzed as previously described for DA (Clarke et al., 2014). In brief, DA content was analyzed using high performance liquid chromatography (HPLC) with electrochemical detection, using an external standard containing 3.25 fmol/μl of DA to identify DA peaks and quantify DA content. The chromatograms were analyzed using the software Thermo Scientific Chromelion Chromatography System (CDS) Chromelion 7.

[4] = tested on: dopamine (DA) in the dorsomedial striatum (DMS); assay: In vivo microdialysis of dopamine in dorsomedial striatum (Example 2); conditions: 12 mg/kg i.p., dual probe, same Wistar rat, FIG. 5
Procedure: as §5, §6, §7

[5] = single probe microdialysis, t=0-180 min, EtOH 2.5 g/kg intraperitoneal, nicotine 0.36 mg/kg subcutaneous, alone or combined
[6] = single probe microdialysis, t=0-180 min, EtOH 2.5 g/kg intraperitoneal, nicotine 0.36 mg/kg subcutaneous, alone or combined, listed as ethanol
[7] = dual probe microdialysis, 0-180 min, Org 24598 9 mg/kg intraperitoneal, varenicline 1.5 mg/kg subcutaneous, alone or combined
[8] = two-way ANOVA, 0-180 min, alone or combined

CN1CCCC1c1cccnc1.O=C(O)C(O)C(O)C(=O)O (single isomer, unassigned; (-)) [nicotine, (−)-nicotine hydrogen tartrate salt]
DA elevation nAc vs DMS (brain region comparison over time) ([1]; rat, in vivo): no effect by brain region on the DA elevation | effect on nAc DA vs vehicle (AUC) ([1]; rat, in vivo): significant and substantial increase in accumbal DA | effect on DMS DA vs vehicle (AUC) ([2]; rat, in vivo): elevated DA significantly

CCO [EtOH, ethanol]
effect on nAc DA vs vehicle (AUC) [1, 5]: transient increase in DA | effect on nAc DA vs vehicle (AUC) [1, 6]: not statistically significant | DA elevation nAc vs DMS (brain region comparison over time) ([1]; two-way ANOVA, t=0-180 min, EtOH 2.5 g/kg, nicotine 0.36 mg/kg, alone or combined): did not produce statistically different DA elevations in the nAc and the DMS | effect on DMS DA vs vehicle (AUC) [2, 5]: significantly increased DA over time | effect on DMS DA vs vehicle (AUC) [2, 6]: elevated DA significantly

CN(CC[C@@H](Oc1ccc(C(F)(F)F)cc1)c1ccccc1)CC(=O)O [Org 24598, N-methyl-N-[(3R)-3-phenyl-3-[4-(trifluoromethyl)phenoxy]propyl]-glycine]
effect on nAc DA vs vehicle (AUC) [1, 7]: no significant effect; also recorded: minor DA increase | DA effect nAc vs DMS (brain region comparison over time) [1, 8]: did not differ between the two areas | effect on DMS DA vs vehicle (AUC) [2, 7]: minor DA increase

COc1cc(C(=O)NCC2(N(C)C)CCCC2)cc(OC)c1OCc1ccccc1.Cl [Org 25543]
effect on dopamine levels in nAc ([3]; 12 mg/kg i.p., dual probe, same Wistar rat, FIG. 5): increase in dopamine levels in nAc | effect on dopamine in the nAc ([3]; 4 or 8 mg/kg i.p., systemic administration, FIG. 4): dose-dependent increase of dopamine in the nAc | effect on dopamine levels in DMS [4]: reduction in dopamine levels in DMS

c1cnc2cc3c(cc2n1)[C@@H]1CNC[C@H]3C1 [varenicline, 7,8,9,10-tetrahydro-6,10-methano-6H-pyrazino[2,3-h][3]benzazepine]
DA effect nAc vs DMS (brain region comparison over time) [1, 8]: did also not differ between brain regions | effect on DMS DA vs vehicle (AUC) [2, 7]: small but significant elevation of DA over time

Reference: US20250302845A1, “SELECTIVE DOPAMINE INCREASE” (SOBRERA PHARMA AB, priority 2022, published 2025)
